In patent US7029879B1, “Iodine uptake restoration in thyroid cancer” (University of Kentucky Research Foundation, priority 1999, dated 2006):

How the values were obtained:
[1] = tested on: KAK-1 cells (benign follicular adenoma); experiment: Iodide uptake assay (specific 125I uptake), KAK-1; format: cell-based, human; conditions: for Specific ^125I Uptake: KAK-1
Protocol: (§1) Cell lines, for evaluation of iodide-uptake and hNIS expression, were grown in phenol-red-free RPMI 1640 with 5% fetal bovine serum (FBS), 100 nM sodium selenite and 0.1 nM bovine TSH (basal medium) (20). They were plated at a density of 3–5×10^4 cells/9.4 cm^2, in triplicate in basal medium, and grown for 2–3 days at 37° C. in 5% CO2. They were treated with dimethylsulfoxide (DMSO, 25 μM daily for 3 days), sodium butyrate (0.5 or 1.0 mM), phenylacetate (pH 7.0, 5 or 10 mM) or 5-azacytidine (0.5 or 1.0 μM, in 25 μM DMSO, daily for 3 days) until control cells were 80% confluent (3–4 days), then changed to fresh basal medium and grown for an additional 24 hrs.
(§2) Cell lines, treated with differentiation agents and control cultures, were washed with 2 mL of buffer containing: 10 mM HEPES ([…]), 5.5 mM glucose, 5.4 mM KCl, 1.3 mM CaCl2, 0.4 mM Na2HPO4, 0.44 mM KH2PO4, and either 137 mM NaCl (Buffer A) or 100 mM choline chloride (Buffer B). After a 60 min incubation in the same buffer supplemented with Na(^125I) (1.0 μCi/2 mL) and 1.0 μM NaI, cells were washed once with Buffer A, lysed with 0.1 M NaOH and gamma counted (5). A parallel set of dishes, similarly plated and treated, were used for normalization of uptake activity, using 3-(4,5-dimethylthiazol-2-yl)-2,5-diphenyltetrazolium bromide (MTT) assay (25) as an index of cell viability. Gamma counts of cells incubated in Buffer B were subtracted from counts of cells incubated in Buffer A, under corresponding conditions, to account for non-specific binding of radioiodide.

[2] = tested on: KAT-10 cells (papillary carcinoma); experiment: Iodide uptake assay (specific 125I uptake), KAT-10; format: cell-based, human
Protocol: as §1, §2

TTF-1 mRNA = TTF-1 mRNA expression by RT-PCR in treated cell lines; format: cell-based, human; conditions: for induction of TTF-1 mRNA expression: KAT-5 and KAT-10 (basal TTF-1 undetectable)
Protocol: as §1
(§3) Total RNA and genomic DNA from: normal human thyroid, thyroid tumors, and cell lines (treated with agents described above), were isolated by the acid-guanidinium-phenol-chloroform method (21). All surgical samples were snap-frozen and stored at −80° C. until processed by homogenization in Trizol reagent (Life Technologies, Gaithersburg, Md.) while still frozen. Complementary DNA (cDNA) was synthesized from 1.0 μg of total RNA using MMLV reverse transcriptase (RT) with random-hexamer primers (Clontech, Palo Alto, Calif.). Each 50 μL polymerase chain reaction (PCR) vessel contained: 60 mM Tris HCl, pH 9.0, 15 mM ammonium sulfate, 3.5 mM MgCl2 (1.5 mM for hTTF-1), 250 μM dNTPs (Boehringer-Mannheim, Indianapolis, Ind.), 0.2 μM each primer pair, 1 U AmpliTaq DNA polymerase (Perkin-Elmer, Norwalk, Conn.), 0.2 μg TaqStart Antibody (Clontech) and 3% cDNA. β-actin amplification (primers, Stratagene, La Jolla, Calif.) confirmed cDNA integrity, purity, and template equivalence for semiquantification. PCR primers (upstream 5′ to 3′/downstream 5′ to 3′, in all cases) used for amplification were, for hNIS (5), CTGCCCCAGACCAGTACAT GCC (SEQ ID NO. 1)/[…] (SEQ ID NO. 2) (to amplify a coding region spanning four introns (4) yielding a 303 bp product from cDNA) and for Pax-8, […] (SEQ ID NO. 3)/[…] (SEQ ID NO. 4)((22) to amplify a 329 bp product). Amplification conditions for hNIS and Pax-8 were: denaturation (95° C.×5 min); 40 cycles of 20 sec at 95° C. and 60 sec at 68° C.; followed by extension at 72° C. for 3 min. The hTTF-1 product was amplified with intron spanning primers, […] (SEQ ID NO. 5)/[…] (SEQ ID NO. 6), which amplify a 263 bp fragment. The conditions were: 95° C. for 5 min; 45 cycles of 95° C. for 20 sec, 60° C. for 60 sec, and 72° C. for 30 sec; followed by extension at 72° C. for 3 min. The RT-PCR products were resolved on 2% agarose gels and visualized by ethidium bromide staining.

hNIS mRNA = hNIS mRNA re-expression by RT-PCR in treated human thyroid cell lines; format: cell-based; conditions: for hNIS mRNA expression despite treatment: MRO87, WRO82 and KAT-7 cell lines
Protocol: as §1, §3

[3] = high: AzaC 1.0 μM, NaB 1.0 mM, PhAc 10 mM
[4] = low: AzaC 0.5 μM, NaB 0.5 mM, PhAc 5.0 mM
[5] = NPA'87, high: AzaC 1.0 μM, NaB 1.0 mM
[6] = KAK-1, high: AzaC 1.0 μM, NaB 1.0 mM, PhAc 10 mM
[7] = KAK-1, low: AzaC 0.5 μM, NaB 0.5 mM, PhAc 5.0 mM
[8] = KAT-5, high: AzaC 1.0 μM, NaB 1.0 mM, PhAc 10 mM
[9] = KAT-5, low: AzaC 0.5 μM, NaB 0.5 mM, PhAc 5.0 mM
[10] = KAT-10, low: AzaC 0.5 μM, NaB 0.5 mM, PhAc 5.0 mM
[11] = NPA'87, high: AzaC 1.0 μM, NaB 1.0 mM, PhAc 10 mM
[12] = NPA'87, low: AzaC 0.5 μM, NaB 0.5 mM, PhAc 5.0 mM

SMILES | Specific ^125I Uptake [1, 3] | Specific ^125I Uptake [1, 4] | Specific ^125I Uptake [2, 4] | induction of TTF-1 mRNA expression (TTF-1 mRNA) | TTF-1 mRNA (TTF-1 mRNA; [5]) | hNIS mRNA (hNIS mRNA; [6]) | hNIS mRNA (hNIS mRNA; [7]) | hNIS mRNA (hNIS mRNA; [8]) | hNIS mRNA (hNIS mRNA; [9]) | hNIS mRNA (hNIS mRNA; [10]) | hNIS mRNA expression despite treatment (hNIS mRNA) | hNIS mRNA (hNIS mRNA; [11]) | hNIS mRNA (hNIS mRNA; [12]) | other results
CCCC(=O)[O-].[Na+] [NaB, sodium butyrate] | − | − | − | did not have such an effect in either of the cell lines | + | − | − | − | − | − | failed to express hNIS mRNA | + | − | Specific ^125I Uptake ([2]; high: NaB 1.0 mM, PhAc 10 mM): −; TTF-1 mRNA (TTF-1 mRNA; KAT-10, high: NaB 1.0 mM): −; hNIS mRNA (hNIS mRNA; KAT-10, high: NaB 1.0 mM, PhAc 10 mM): +; re-expression of hNIS mRNA (hNIS mRNA; NPA'87 and KAT-10): re-expression of hNIS mRNA
Nc1ncn([C@@H]2O[C@H](CO)[C@@H](O)[C@H]2O)c(=O)n1 [AzaC, 5-azacytidine] | + | − | − | induced | + | + | + | + | − | + | failed to express hNIS mRNA | + | − | enhancement of ^125I uptake ([1]; KAK-1 cells, 0.5 μM 5-azacytidine): no enhancement of uptake; increase in ^125I uptake as compared with untreated cells ([1]; KAK-1 cells, 1.0 μM 5-azacytidine): greater than two-fold; TTF-1 mRNA (TTF-1 mRNA; KAK-1, high: AzaC 1.0 μM): +; TTF-1 mRNA (TTF-1 mRNA; KAK-1, low: AzaC 0.5 μM): +; TTF-1 mRNA (TTF-1 mRNA; KAT-5, high: AzaC 1.0 μM, PhAc 10 mM): +; TTF-1 mRNA (TTF-1 mRNA; KAT-10, low: AzaC 0.5 μM): +; re-expression of hNIS mRNA, comparison of the two concentrations (hNIS mRNA; KAK-1 cells, 0.5 μM vs 1.0 μM 5-azacytidine): comparable
